What was measured:
HPAF-II pancreatic tumor = assay: In vivo therapeutic study, subcutaneous HPAF-II pancreatic tumor model, tumor volume; set-up: species or system nude mice; conditions: HPAF-II tumors; injections days 1, 4, 7, 10
Procedure: Tumors were grown by subcutaneously injecting 2×10^6 HPAF-II cells in 0.1 ml of cell culture media. Daily tumor volume measurements were taken using an electronic digital caliper (Control Company, Friendswood, Tex.). The equation a^2×b×0.52 was used to calculate the tumor volume, where ‘a’ and ‘b’ corresponded to the longer and shorter diameters, respectively. […] Animals received injections of the various formulations when the tumors reached a size of about 150 mm^3; the untreated control group received no injections. […] Day 1 injection was 18 μg of 2-methoxyestradiol for both PCL formulations. Day 4, 7, and 10 injections corresponded to 24 μg of 2-methoxyestradiol for both formulations. […] The end of the study was three days after the fourth injection, at which point the mice were anesthetized with ketamine/xylazine.

[1] = tested on: Capan-1, HPAF-II, PANC-1, MS1-VEGF and HMEC-1 cells; assay: Bevacizumab cell toxicity assay (SRB); assay type: cell-based; conditions: 24 h exposure; media containing or free of VEGF
Procedure: Cells were seeded at 1×10^4 cells/well in 1 ml volumes in a 48-well plate. The cells were incubated for 24 h in a 37° C. cell culture incubator set at CO2 5%. […] After 24 h of incubation the SRB assay was performed (as described in, e.g., Dandamudi et al., Biochim. Biophys. Acta 1768:427-438 (2007); Skehan et al., J. Natl. Cancer Inst. 82:1107-1112 (1990); and Kalra et al., Pharm. Res. 23:2809-2817 (2006)). Briefly, the plates were washed twice with 1 ml/well of 1×PBS. Then, […] trichloracetic acid 50% solution (TCA; […]) was added to each well and the plates were stored at 4° C. for 1 h. The plates were thoroughly washed with distilled H2O five times and then 200 μl of SRB 0.4% was added to each well The plates were stored at room temperature for 30 min and then washed 4-6 times thoroughly with acetic acid 1% to remove excess SRB and air dried. 1 ml of […] was added to each well to solubilize the SRB and fluorescence intensity was measured at excitation wavelength of 540/20 and emission wavelength of 590/20 nm using FLX 800 Fluorescence Microplate Reader (Biotech instruments Inc., Winooski, Vt.). All groups were compared with untreated cells for statistical analysis.

bevacizumab: anti-VEGF antibody bevacizumab (Avastin, Roche)
earliest day at which tumor response / significant benefit was seen (HPAF-II pancreatic tumor): 3 days
nontoxic concentration (maximum amount of antibody without altering the growth potential of the cells) [1]: 500 ng/mL
